In US20250375453A1, “HIGH-EFFICIENCY ANTIMICROBIAL COMPOSITION” (CM4CURE S.A., priority 2023, published 2025):

How the values were obtained:
[1] = tested on: Staphylococcus aureus MSSA; settings: cited from earlier work
[2] = tested on: Escherichia coli; settings: cited from earlier work
[3] = tested on: Candida tropicalis; settings: cited from earlier work
[4] = tested on: Lactobacillus fermentum; settings: cited from earlier work
[5] = tested on: Enterococcus faecalis; settings: cited from earlier work
[6] = tested on: Fusobacterium nucleatum; settings: cited from earlier work
[7] = tested on: Pseudomonas aeruginosa (ATCC 15442); assay: Real-time microcalorimetric measurement of bacterial metabolic activity (heat flow, Calscreener); type: cell-based; settings: chlorhexidine digluconate alone, tested 1-24 mg/L, TSB, 37 C, 24 h or more
Method: Pseudomonas aeruginosa (ATCC 15442) was grown overnight in TSB (tryptic soy broth) medium, before being diluted 1×10^7 fold in fresh TSB. Subsequently […] aliquots of diluted bacteria suspensions were respectively supplemented with 1, 2, 4, 6, 12 and 24 mg/L of chlorhexidine (digluconate solution, 20% in H2O, Merck). The aqueous solution of chlorhexidine was kept refrigerated according to the manufacturer's technical sheet. Chlorhexidine or mQH2O as a vehicle were added to the bacterial suspensions to obtain the given concentrations followed by a brief vortexing. Bacterial aliquots were then distributed in the dedicated non-activated inserts of a 48-well plate and grown for 24h or more under static conditions at 37 C using Calscreener technology to measure bacterial growth and metabolic activity in Real-Time as described in https://cordis.europa.eu/project/id/784514.
For the study of the combination of chlorhexidine and triafluocyl aforementioned diluted bacterial suspensions were supplemented with either chlorhexidine alone (1, 2, 4, 6, 12 mg/L) or mixed with triafluocyl (20 mg/L, Polpharma). Triafluocyl was stored in absolute ethanol in the refrigerator at a concentration of 3 mg/mL. Triafluocyl, chlorhexidine or both, and ethanol as a vehicle were added to the bacterial suspensions to obtain the given concentrations.
Pseudomonas aeruginosa (ATCC 15442) was grown overnight in TSB (tryptic soy broth) medium, before being diluted 1×10^7 fold in fresh TSB. Subsequently […] aliquots of diluted bacteria suspensions were respectively supplemented with […] of alexidine dihydrochloride (stock solution of 3 mg/mL in ethanol, Merck). […] The stock solutions of alexidine and fluometacyl were kept frozen according to the manufacturer's technical sheet. Alexidine alone or with fluometacyl, and ethanol as a vehicle were added to the bacterial suspensions to obtain the given concentrations followed by a brief vortexing. […]

[8] = tested on: Klebsiella spp.; settings: cited from earlier work
[9] = tested on: Candida albicans; settings: cited from earlier work
[10] = tested on: Lactobacillus reuteri; settings: cited from earlier work
[11] = tested on: Pseudomonas aeruginosa; settings: cited from earlier work
[12] = tested on: Porphyromonas gingivalis; settings: cited from earlier work
[13] = tested on: Candida krusei; settings: cited from earlier work
[14] = tested on: Staphylococcus aureus MRSA; settings: cited from earlier work
[15] = tested on: Lactobacillus acidophilus; settings: cited from earlier work
[16] = tested on: Candida albicans (CA); assay: MIC in monotherapy and in combination therapy (ISO standard 20776-1); type: cell-based
Excerpt: (§1) Summary of MIC Values for Fluometacyl (FLC)+Chlorhexidine (CHX) Tested Against MRSA, Enterococcus faecalis (VRE), Pseudomonas aeruginosa (PA) and Candida albicans (CA).
(§2) By Minimum Inhibitory Concentration (MIC) one means the lowest concentration of antimicrobial that prevents visible growth of a microorganism (determined according to ISO standard 20776-1).
(§3) This finds an implication in combining many known antimicrobials together rather than discovering new chemical entities.

[17] = tested on: Staphylococcus aureus (MRSA); assay: as above; type: cell-based
Excerpt: as §1, §2, §3

[18] = tested on: Pseudomonas aeruginosa (PA); assay: as above; type: cell-based
Excerpt: as §1, §2, §3

[19] = tested on: Streptococcus mutans; settings: cited from earlier work
[20] = MIC combination / MIC monotherapy

[H]/N=C(\N/C(=N/[H])NCCCCCCNC(=N)NC(=N)Nc1ccc(Cl)cc1)Nc1ccc(Cl)cc1 [Chlorhexidine, chlorhexidine]
MIC of chlorhexdine [1]: 0.25 to 8 µg/mL | MIC of chlorhexdine [2]: 2 to 16 µg/mL | MIC of chlorhexdine [3]: 75 µg/mL | MIC of chlorhexdine [4]: 0.25 to 1 µg/mL | MIC of chlorhexdine [5]: 4 to 16 µg/mL | MIC of chlorhexdine [6]: 1.8 µg/mL | concentration that fully inhibits bacterial proliferation [7]: 24 mg/L | MIC of chlorhexdine [8]: 8 to 16 µg/mL | MIC of chlorhexdine [9]: 1 to 16 µg/mL | MIC of chlorhexdine [10]: 0.125 to 4 µg/mL | MIC of chlorhexdine [11]: 16 to 32 µg/mL | MIC of chlorhexdine [12]: 0.9 µg/mL | MIC of chlorhexdine [13]: 150 µg/mL | MIC of chlorhexdine [14]: 2 to 8 µg/mL | MIC of chlorhexdine [15]: 0.5 to 2 µg/mL | MIC ([16]; Candida albicans, antimicrobial alone, read-out: MIC Monotherapy (X)): 4000 µg/mL | Ratio Y/X [16, 20]: 0.5 | MIC combination dual therapy (Y) ([16]; in FLC + CHX combination): 2000 µg/mL | Ratio Y/X [17, 20]: 0.25-0.5 | MIC ([17]; Staphylococcus aureus, MRSA, antimicrobial alone, read-out: MIC Monotherapy (X)): 1000 µg/mL | MIC combination dual therapy (Y) ([17]; in FLC + CHX combination): 250 to 500 µg/mL | Ratio Y/X [18, 20]: 0.25 | MIC ([18]; Pseudomonas aeruginosa, antimicrobial alone, read-out: MIC Monotherapy (X)): 16000 µg/mL | MIC combination dual therapy (Y) ([18]; in FLC + CHX combination): 4000 µg/mL | MIC of chlorhexdine [19]: 0.9 to 4 µg/mL
